Test results from PubChem BioAssay AID1996.
Converted amounts (≈) assume the structure as drawn.

Details: buffer; pH 7.4; 200.0 µM

solubility kinetic | SMILES
0.0381 mg/mL (≈ 141 µM) | O=[N+]([O-])c1cc2c(cc1C=Nc1ccccc1)OCO2
0.0018 mg/mL (≈ 6.09 µM) | Cc1ccc(NS(=O)(=O)Cc2ccccc2)cc1Cl
> 0.0555 mg/mL | O=C(CN1C(=O)NC2(CCc3ccccc32)C1=O)Nc1ccccc1Cl (centres undefined)
> 0.0252 mg/mL | Nc1nc(-c2nonc2N)no1
> 0.0479 mg/mL | Cc1ccc(C(=O)Nc2sc3c(c2C(=O)O)CCC(C)C3)o1 (centres undefined)
0.044 mg/mL (≈ 142 µM) | O=c1[nH]c(/C=C\c2ccc(O)c(Cl)c2)nc(O)c1[N+](=O)[O-]
0.0529 mg/mL (≈ 129 µM) | CN(C(=O)C1CCN(S(=O)(=O)c2ccccc2[N+](=O)[O-])CC1)C1CCCCC1
> 0.0424 mg/mL | CN1CCN(C(=O)/C=C/c2c(F)cccc2Cl)CC1
> 0.0473 mg/mL | O=C(COC(=O)Cc1ccc(F)cc1)NCCc1ccccc1
0.0018 mg/mL (≈ 5.79 µM) | Cc1cc(C)c(S(=O)(=O)Nc2ccc(Cl)cn2)c(C)c1
< 0.0003 mg/mL | CC(=O)c1sc(NC(=O)c2ccccc2)nc1-c1ccccc1
> 0.0431 mg/mL | O=Cc1ccc(C(=O)OCC(=O)NCc2ccco2)cc1
> 0.0601 mg/mL | Cc1cccc(OCC(=O)OCC(=O)N2CCN(C(=O)c3ccco3)CC2)c1C
0.0005 mg/mL (≈ 1.68 µM) | Nc1ccc(-c2nc(-c3ccccc3)nc3ccccc23)cc1
0.0031 mg/mL (≈ 6.73 µM) | CC(C)N(Cc1ccccc1)C(=O)COC(=O)c1ccc(S(=O)(=O)N2CCOCC2)cc1
0.0045 mg/mL (≈ 15.7 µM) | O=C1/C(=C\c2ccsc2)NC(=S)N1c1ccccc1

solubility kinetic | SMILES
0.0306 mg/mL (≈ 99.5 µM) | O=C(Nc1nccs1)[C@@H]1CCCN1C(=O)c1cccs1
< 0.0003 mg/mL | CCOC(=O)c1ccc(NC(=S)NCc2ccccc2)cc1
0.0151 mg/mL (≈ 35 µM) | O=C(Nc1ccc(N2CCOCC2)cc1)c1cccc(S(=O)(=O)N2CCOCC2)c1
0.0463 mg/mL (≈ 149 µM) | CC(OC(=O)c1ccc2noc(-c3ccccc3)c2c1)C(N)=O (centres undefined)
> 0.05 mg/mL | CCc1nnc(NC(=O)CN2CCN(S(C)(=O)=O)CC2)s1
0.0243 mg/mL (≈ 86.7 µM) | c1ccc(CCCN2CCN(c3ccccc3)CC2)cc1
0.0547 mg/mL (≈ 147 µM) | O=C(NCCc1ccc(Cl)cc1)C1CCCN1C(=O)Nc1ccccc1 (centres undefined)
0.035 mg/mL (≈ 99.6 µM) | Nc1ccccc1-n1c(=O)n(Cc2ccccc2F)c(=O)c2[nH]cnc21
0.0009 mg/mL (≈ 2.72 µM) | CC1(C)c2ccccc2N2CC(=O)N[C@@]21/C=C/C=C/c1ccccc1
0.0372 mg/mL (≈ 107 µM) | O=C(OCC(=O)N1CCc2ccccc2C1)c1ccc(F)cc1Cl
> 0.0647 mg/mL | CCOC(=O)C1=C(COC(=O)[C@@H](NC(=O)c2cccc(C)c2)C(C)C)NC(=O)NC1C (some centres undefined)
> 0.0362 mg/mL | O=C(NNC(=O)c1ccncc1)c1ccccc1
> 0.0499 mg/mL | CS(=O)(=O)N(CC(=O)N1CCOCC1)c1ccc(Cl)cc1
> 0.0497 mg/mL | O=C(c1ccccn1)N1CCN(S(=O)(=O)c2ccccc2)CC1
> 0.0341 mg/mL | CN(C)c1ccc(N=Cc2cccn2C)cc1
> 0.0461 mg/mL | O=C(COC(=O)c1ccc(O)cc1O)NC1CCCCCC1

Second part, the molecule before the results:

SMILES | solubility kinetic
CN(Cc1ccccc1)C(=O)CN1C(=O)c2ccc([N+](=O)[O-])cc2C1=O | > 0.053 mg/mL
Cc1ncc([N+](=O)[O-])n1CC(=O)Nc1ccc(F)c(Cl)c1 | 0.0005 mg/mL (≈ 1.6 µM)
COc1ccc2sc(NCc3ccccc3)nc2c1 | 0.002 mg/mL (≈ 7.4 µM)
CCCn1c(=N)n(CC(O)COc2ccc(C)cc2)c2ccccc21.Cl (centres undefined) | > 0.0564 mg/mL
CC(C)CNC(C)C(=O)Nc1ccc(S(N)(=O)=O)cc1 (centres undefined) | > 0.0449 mg/mL
Cc1occc1C(=O)Nc1ccc(OCc2ccccc2)cc1 | 0.0021 mg/mL (≈ 6.83 µM)
CCOC(=O)C1CCCN(C(=S)Nc2ccc(OC)cc2)C1 (centres undefined) | 0.046 mg/mL (≈ 143 µM)
O=C(Nc1ccncc1)c1ccc(Cl)c([N+](=O)[O-])c1 | > 0.0417 mg/mL
C[C@@H]1NC(=O)/C(=C\c2ccccc2Cl)NC1=O | 0.0128 mg/mL (≈ 51.1 µM)
CCOC(=O)C1CCN(C(=O)c2cccnc2Oc2ccccc2)CC1 | 0.0509 mg/mL (≈ 144 µM)
CN1C/C(=C/c2cccs2)C(=O)/C(=C\c2cccs2)C1 | 0.0246 mg/mL (≈ 81.6 µM)
O=[N+]([O-])c1ccc(P(=O)(Cc2ccccc2)c2ccccc2O)cc1 (centres undefined) | 0.017 mg/mL (≈ 48.1 µM)
Cc1ccsc1C(=O)Nc1nccs1 | > 0.0336 mg/mL
COc1cc(C(=O)Nc2ccc(C)cn2)c([N+](=O)[O-])cc1OC | > 0.0476 mg/mL
CC(C)N(Cc1ccccc1)C(=O)CN1C(=O)NC2(CCOc3ccccc32)C1=O (centres undefined) | > 0.0611 mg/mL
COc1ccc(-c2cn3cc([N+](=O)[O-])ccc3n2)cc1OC | 0.0166 mg/mL (≈ 55.5 µM)
O=C1/C(=C/c2cccs2)SC(=S)N1c1cccc(O)c1 | 0.001 mg/mL (≈ 3.13 µM)
CCN(CC)S(=O)(=O)c1ccc(NC(=S)Nc2ccccc2)cc1 | 0.013 mg/mL (≈ 35.8 µM)
O=C(O)CSc1nc2c(c(C(F)(F)F)n1)CCCC2 | > 0.0438 mg/mL
COc1ccc(S(=O)(=O)Oc2cc(C(=S)N3CCOCC3)ccc2OC)cc1 | 0.0254 mg/mL (≈ 60 µM)
Cc1[nH]c2ccccc2c1SCC(=O)N1CCCCCC1 | 0.0258 mg/mL (≈ 85.3 µM)
CN(CC(=O)Nc1ccc(C(N)=O)cc1)S(=O)(=O)c1ccc2c(c1)OCCO2 | 0.0094 mg/mL (≈ 23.2 µM)
O=c1ccnc(SCCc2ccccc2)[nH]1 | > 0.0348 mg/mL
CC1CN(C(=O)c2cccs2)CC(C)O1 (centres undefined) | 0.0324 mg/mL (≈ 144 µM)
Cc1cccc(-c2noc(CCCC(=O)NCC3CCCO3)n2)c1 (centres undefined) | > 0.0494 mg/mL
O=C(CCNC(=O)c1ccccc1Cl)OCC(=O)c1ccccc1 | > 0.0519 mg/mL
CC(=O)C1=C(C)NC(C)=C(C(C)=O)C1c1ccccc1 | 0.0353 mg/mL (≈ 131 µM)
